Reference: PubChem BioAssay (NCI)
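Step 1: Grow cells in 96-well plates. Step 2: Expose to compound for 48 hours at 5 concentrations. Step 3: Interpolate endpoints linearly; if unreached, use highest concentration. GI50 marks 50% less growth. TGI: total growth inhibition.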

Tests used:
Assay in all cases: NCI-60 cell line screen, 48 h
HOP-92 NSCLC = test system: HOP-92 NSCLC
HCC-2998 colon = test system: HCC-2998 colon
SK-MEL-5 melanoma = test system: SK-MEL-5 melanoma
HT29 colon = test system: HT29 colon
U251 CNS = test system: U251 CNS
HL-60(TB) leukemia = test system: HL-60(TB) leukemia
SNB-19 CNS = test system: SNB-19 CNS
LOX IMVI melanoma = test system: LOX IMVI melanoma
COLO 205 colon = test system: COLO 205 colon
MDA-MB-435 = test system: MDA-MB-435
MDA-MB-231 breast = test system: MDA-MB-231 breast

NC(=S)N/N=C/c1nccc2ccccc12
TGI (HOP-92 NSCLC): > 100 µM | TGI (HCC-2998 colon): > 100 µM | TGI (SK-MEL-5 melanoma): > 100 µM | TGI (HT29 colon): > 100 µM | TGI (U251 CNS): > 100 µM | TGI (HL-60(TB) leukemia): 4.23 µM | TGI (SNB-19 CNS): 32.7 µM | TGI (LOX IMVI melanoma): 2.64 µM | TGI (COLO 205 colon): > 100 µM

Oc1cc(O)c2ccc(-c3ccc(O)c(O)c3)[o+]c2c1
TGI (HOP-92 NSCLC): > 100 µM | TGI (HCC-2998 colon): > 100 µM | TGI (HT29 colon): > 100 µM | TGI (U251 CNS): > 100 µM | TGI (HL-60(TB) leukemia): > 100 µM | TGI (MDA-MB-435): > 100 µM | TGI (SNB-19 CNS): > 100 µM | TGI (LOX IMVI melanoma): > 100 µM

CC(=O)OC1CC2CCN3C(=O)c4cc5c(cc4[C@H](C1OC(C)=O)C23)OCO5 (stereo partly drawn)
TGI (HCC-2998 colon): > 100 µM | TGI (HT29 colon): > 100 µM | TGI (U251 CNS): > 100 µM | TGI (HL-60(TB) leukemia): > 100 µM | TGI (SNB-19 CNS): > 100 µM | TGI (LOX IMVI melanoma): > 100 µM | TGI (COLO 205 colon): > 100 µM

NC1=NC2=c3ccccc3=C(c3cnccn3)C2(c2cnccn2)c2ccccc21 (stereo not drawn)
TGI (HOP-92 NSCLC): > 100 µM | TGI (HCC-2998 colon): > 100 µM | TGI (SK-MEL-5 melanoma): > 100 µM | TGI (HT29 colon): > 100 µM | TGI (U251 CNS): > 100 µM | TGI (HL-60(TB) leukemia): > 100 µM | TGI (SNB-19 CNS): > 100 µM | TGI (LOX IMVI melanoma): > 100 µM | TGI (COLO 205 colon): > 100 µM

c1ccc(N2N=C(c3cccc(Nc4ccncc4)c3)CC2c2ccc3c(c2)OCO3)cc1 (stereo not drawn)
GI50 (HOP-92 NSCLC): 1.1 µM | TGI (HOP-92 NSCLC): 2.47 µM | GI50 (HCC-2998 colon): 1.84 µM | TGI (HCC-2998 colon): 3.36 µM | GI50 (SK-MEL-5 melanoma): 1.77 µM | TGI (SK-MEL-5 melanoma): 3.17 µM | GI50 (U251 CNS): 1.81 µM | TGI (U251 CNS): 3.74 µM | GI50 (HL-60(TB) leukemia): 1.77 µM | TGI (HL-60(TB) leukemia): 3.69 µM | GI50 (MDA-MB-435): 0.383 µM | TGI (MDA-MB-435): 1.47 µM | GI50 (SNB-19 CNS): 2.2 µM | TGI (SNB-19 CNS): 6.67 µM | GI50 (LOX IMVI melanoma): 1.69 µM | TGI (LOX IMVI melanoma): 3.08 µM | GI50 (COLO 205 colon): 1.8 µM | TGI (COLO 205 colon): 3.84 µM

COC(=O)[C@H](Cc1ccccc1)NC(=O)/C(=C/C(C)C)NC(=O)[C@H](CCSC)NC=O
TGI (HOP-92 NSCLC): > 100 µM | TGI (HCC-2998 colon): > 100 µM | TGI (SK-MEL-5 melanoma): > 100 µM | TGI (HT29 colon): > 100 µM | TGI (U251 CNS): > 100 µM | TGI (HL-60(TB) leukemia): > 100 µM | TGI (SNB-19 CNS): > 100 µM | TGI (LOX IMVI melanoma): > 100 µM | TGI (COLO 205 colon): > 100 µM

Cc1c(C)c(C)c(CC2(C)CSC2)c(CC2(C)CSC2)c1C
TGI (HOP-92 NSCLC): > 100 µM | TGI (SK-MEL-5 melanoma): > 100 µM | TGI (HT29 colon): > 100 µM | TGI (MDA-MB-231 breast): > 100 µM | TGI (U251 CNS): > 100 µM | TGI (HL-60(TB) leukemia): > 100 µM | TGI (SNB-19 CNS): > 100 µM | TGI (LOX IMVI melanoma): > 100 µM | TGI (COLO 205 colon): > 100 µM

Cc1ccc(/C=N/n2c(Cc3ccccc3)n[nH]c2=O)cc1
TGI (HOP-92 NSCLC): 83.4 µM | TGI (HCC-2998 colon): > 100 µM | TGI (SK-MEL-5 melanoma): > 100 µM | TGI (HT29 colon): > 100 µM | TGI (MDA-MB-231 breast): > 100 µM | TGI (HL-60(TB) leukemia): > 100 µM | TGI (SNB-19 CNS): > 100 µM | TGI (LOX IMVI melanoma): > 100 µM | TGI (COLO 205 colon): > 100 µM
